Laboratory results from patent publication US20230085307A1, “PYRIDAZINONE COMPOUND AND HERBICIDE” (NISSAN CHEMICAL CORPORATION, priority 2019, published 2023).

What was measured:
[1] = system: Japanese bulrush; assay: Test Example 1: herbicidal activity, application before weed generation under submerged conditions (Table 16, symbol B); format: in vivo, Japanese bulrush (Schoenoplectus juncoides); conditions: amount of applied herbicide 320 g/ha
Method in brief: (§1)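 Alluvial soil was flooded to 4 cm depth, weed seeds were sown mixed and 2.5-leaf rice seedlings were transplanted. On sowing day, the compound's emulsion, diluted in water to a set dose, was applied to the water surface. Plants grew at 25–30 °C and were scored 0–5 after three weeks.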

[2] = system: green foxtail; assay: Test Example 5: herbicidal effect by foliage application, plastic box (Table 20, symbol G); format: in vivo, green foxtail (Setaria viridis); conditions: foliage application after 14-day growth, evaluated three weeks after application
Method in brief: (§2)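 Post-emergence foliar test in sterilized diluvial soil. Compound applied as water-diluted emulsion at a predetermined rate to 14-day-old plants; evaluation at three weeks.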

[3] = system: barnyard grass; assay: Test Example 4: herbicidal effect by soil treatment (Table 19, symbol H); format: in vivo, barnyard grass (Echinochloa crus-galli); conditions: amount of applied herbicide 320 g/ha
Method in brief: (§3)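 Scoring uses the grading scale of an earlier test, three weeks post-application. Treatment consists of spraying a diluted emulsion formulation across the surface of sterilized diluvial soil in which seeds are buried near 1.5 cm deep; boxes are kept in a greenhouse between 25° C. and 30° C.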

[4] = system: chickweed; assay: Test Example 5: herbicidal effect by foliage application, plastic box (Table 20, symbol P); format: in vivo, common chickweed (Stellaria media); conditions: foliage application after 14-day growth, evaluated three weeks after application
Method in brief: as §2

[5] = system: persian speedwell; assay: Test Example 5: herbicidal effect by foliage application, plastic box (Table 20, symbol R); format: in vivo, Persian speedwell (Veronica persica); conditions: foliage application after 14-day growth, evaluated three weeks after application
Method in brief: as §2

[6] = system: redroot pigweed; assay: Test Example 5: herbicidal effect by foliage application, plastic box (Table 20, symbol N); format: in vivo, redroot pigweed (Amaranthus retroflexus); conditions: foliage application after 14-day growth, evaluated three weeks after application
Method in brief: as §2

[7] = system: oval-leafed pondweed; assay: Test Example 1: herbicidal activity, application before weed generation under submerged conditions (Table 16, symbol C); format: in vivo, oval-leafed pondweed (Monochoria vaginalis); conditions: amount of applied herbicide 320 g/ha
Method in brief: as §1

[8] = system: blackgrass; assay: Test Example 4: herbicidal effect by soil treatment (Table 19, symbol J); format: in vivo, blackgrass (Alopecurus myosuroides); conditions: amount of applied herbicide 320 g/ha
Method in brief: as §3

[9] = system: lambsquarters; assay: Test Example 5: herbicidal effect by foliage application, plastic box (Table 20, symbol O); format: in vivo, lambsquarters (Chenopodium album); conditions: foliage application after 14-day growth, evaluated three weeks after application
Method in brief: as §2

[10] = system: windgrass; assay: Test Example 5: herbicidal effect by foliage application, plastic box (Table 20, symbol L); format: in vivo, windgrass (Apera spica-venti); conditions: foliage application after 14-day growth, evaluated three weeks after application
Method in brief: as §2

[11] = system: barnyard grass; assay: Test Example 5: herbicidal effect by foliage application, plastic box (Table 20, symbol H); format: in vivo, barnyard grass (Echinochloa crus-galli); conditions: foliage application after 14-day growth, evaluated three weeks after application
Method in brief: as §2

[12] = system: late watergrass; assay: Test Example 1: herbicidal activity, application before weed generation under submerged conditions (Table 16, symbol A); format: in vivo, late watergrass (Echinochloa oryzicola); conditions: amount of applied herbicide 320 g/ha
Method in brief: as §1

[13] = system: southern crabgrass; assay: Test Example 5: herbicidal effect by foliage application, plastic box (Table 20, symbol F); format: in vivo, southern crabgrass (Digitaria ciliaris); conditions: foliage application after 14-day growth, evaluated three weeks after application
Method in brief: as §2

[14] = system: rice flat sedge; assay: Test Example 3: herbicidal effect by foliage application, Wagner pot (Table 18, symbol E); format: in vivo, rice flat sedge (Cyperus iria); conditions: 320 g/ha
Method in brief: (§4)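 Plants were sown in alluvial soil held under 0.1–0.5 cm standing water and grown 14 days in a greenhouse at 25–30 °C. An emulsifiable formulation, water-diluted to the set dose, was then sprayed onto the foliage, and effects were scored three weeks later using previously defined criteria.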

[15] = system: redroot pigweed; assay: Test Example 4: herbicidal effect by soil treatment (Table 19, symbol N); format: in vivo, redroot pigweed (Amaranthus retroflexus); conditions: amount of applied herbicide 320 g/ha
Method in brief: as §3

[16] = system: velvetleaf; assay: Test Example 4: herbicidal effect by soil treatment (Table 19, symbol M); format: in vivo, velvetleaf (Abutilon theophrasti); conditions: amount of applied herbicide 320 g/ha
Method in brief: as §3

[17] = system: Chinese sprangletop; assay: Test Example 3: herbicidal effect by foliage application, Wagner pot (Table 18, symbol D); format: in vivo, chinese sprangletop (Leptochloa chinensis); conditions: 320 g/ha
Method in brief: as §4

[18] = system: persian speedwell; assay: Test Example 4: herbicidal effect by soil treatment (Table 19, symbol R); format: in vivo, Persian speedwell (Veronica persica); conditions: amount of applied herbicide 320 g/ha
Method in brief: as §3

[19] = system: barnyard grass; assay: Test Example 3: herbicidal effect by foliage application, Wagner pot (Table 18, symbol H); format: in vivo, barnyard grass (Echinochloa crus-galli); conditions: 320 g/ha
Method in brief: as §4

[20] = system: green foxtail; assay: Test Example 4: herbicidal effect by soil treatment (Table 19, symbol G); format: in vivo, green foxtail (Setaria viridis); conditions: amount of applied herbicide 320 g/ha
Method in brief: as §3

[21] = system: southern crabgrass; assay: Test Example 4: herbicidal effect by soil treatment (Table 19, symbol F); format: in vivo, southern crabgrass (Digitaria ciliaris); conditions: amount of applied herbicide 320 g/ha
Method in brief: as §3

[22] = system: Italian ryegrass; assay: Test Example 4: herbicidal effect by soil treatment (Table 19, symbol K); format: in vivo, Italian ryegrass (Lolium multiflorum); conditions: amount of applied herbicide 320 g/ha
Method in brief: as §3

[23] = system: lambsquarters; assay: Test Example 4: herbicidal effect by soil treatment (Table 19, symbol O); format: in vivo, lambsquarters (Chenopodium album); conditions: amount of applied herbicide 320 g/ha
Method in brief: as §3

[24] = system: windgrass; assay: Test Example 4: herbicidal effect by soil treatment (Table 19, symbol L); format: in vivo, windgrass (Apera spica-venti); conditions: amount of applied herbicide 320 g/ha
Method in brief: as §3

[25] = system: Italian ryegrass; assay: Test Example 5: herbicidal effect by foliage application, plastic box (Table 20, symbol K); format: in vivo, Italian ryegrass (Lolium multiflorum); conditions: foliage application after 14-day growth, evaluated three weeks after application
Method in brief: as §2

[26] = system: wild oat; assay: Test Example 5: herbicidal effect by foliage application, plastic box (Table 20, symbol I); format: in vivo, wild oat (Avena fatua); conditions: foliage application after 14-day growth, evaluated three weeks after application
Method in brief: as §2

[27] = system: velvetleaf; assay: Test Example 5: herbicidal effect by foliage application, plastic box (Table 20, symbol M); format: in vivo, velvetleaf (Abutilon theophrasti); conditions: foliage application after 14-day growth, evaluated three weeks after application
Method in brief: as §2

[28] = system: chickweed; assay: Test Example 4: herbicidal effect by soil treatment (Table 19, symbol P); format: in vivo, common chickweed (Stellaria media); conditions: amount of applied herbicide 320 g/ha
Method in brief: as §3

[29] = system: blackgrass; assay: Test Example 5: herbicidal effect by foliage application, plastic box (Table 20, symbol J); format: in vivo, blackgrass (Alopecurus myosuroides); conditions: foliage application after 14-day growth, evaluated three weeks after application
Method in brief: as §2

[30] = system: wild oat; assay: Test Example 4: herbicidal effect by soil treatment (Table 19, symbol I); format: in vivo, wild oat (Avena fatua); conditions: amount of applied herbicide 320 g/ha
Method in brief: as §3

[31] = amount of applied herbicide 320 g/ha

Row | SMILES | Herbicidal effect, B: Japanese bulrush [1] | Herbicidal effect by soil treatment, H: barnyard grass [3] | Herbicidal effect, C: oval-leafed pondweed [7] | Herbicidal effect by soil treatment, J: blackgrass [8] | Herbicidal effect, A: late watergrass [12] | herbicidal effect on rice flat sedge (E) [14] | Herbicidal effect by soil treatment, N: redroot pigweed [15] | Herbicidal effect by soil treatment, M: velvetleaf [16] | herbicidal effect on Chinese sprangletop (D) [17] | Herbicidal effect by soil treatment, R: persian speedwell [18] | herbicidal effect on barnyard grass (H) [19] | Herbicidal effect by soil treatment, G: green foxtail [20] | Herbicidal effect by soil treatment, F: southern crabgrass [21] | Herbicidal effect by soil treatment, K: Italian ryegrass [22] | Herbicidal effect by soil treatment, O: lambsquarters [23] | Herbicidal effect by soil treatment, L: windgrass [24] | Herbicidal effect by soil treatment, P: chickweed [28] | Herbicidal effect by soil treatment, I: wild oat [30] | other results
1 | CCCOc1ccc(-c2sc3c(F)cccc3c2-c2c(O)c(C)nn(C)c2=O)cc1 [4-009] | 1 (Herbicidal rate of 5% or more and less than 20%) | 0 (Herbicidal rate of 5% or less (almost no effect)) | 0 (Herbicidal rate of 5% or less (almost no effect)) | 0 (Herbicidal rate of 5% or less (almost no effect)) | 2 (Herbicidal rate of 20% or more and less than 40%) | 5 (Herbicidal rate of 90% or more (almost completely withered)) | 5 (Herbicidal rate of 90% or more (almost completely withered)) | 0 (Herbicidal rate of 5% or less (almost no effect)) | 3 (Herbicidal rate of 40% or more and less than 70%) | 4 (Herbicidal rate of 70% or more and less than 90%) | 5 (Herbicidal rate of 90% or more (almost completely withered)) | 0 (Herbicidal rate of 5% or less (almost no effect)) | 0 (Herbicidal rate of 5% or less (almost no effect)) | 0 (Herbicidal rate of 5% or less (almost no effect)) | 3 (Herbicidal rate of 40% or more and less than 70%) | 0 (Herbicidal rate of 5% or less (almost no effect)) | 4 (Herbicidal rate of 70% or more and less than 90%) | 0 (Herbicidal rate of 5% or less (almost no effect)) | herbicidal effect on G: green foxtail (evaluation grade 0-5) ([2]; 320 g/ha): 2 (Herbicidal rate of 20% or more and less than 40%); herbicidal effect on P: chickweed (evaluation grade 0-5) ([4]; 320 g/ha): 5 (Herbicidal rate of 90% or more (almost completely withered)); herbicidal effect on R: persian speedwell (evaluation grade 0-5) ([5]; 320 g/ha): 5 (Herbicidal rate of 90% or more (almost completely withered)); herbicidal effect on N: redroot pigweed (evaluation grade 0-5) ([6]; 320 g/ha): 5 (Herbicidal rate of 90% or more (almost completely withered)); herbicidal effect on O: lambsquarters (evaluation grade 0-5) ([9]; 320 g/ha): 4 (Herbicidal rate of 70% or more and less than 90%); herbicidal effect on L: windgrass (evaluation grade 0-5) ([10]; 320 g/ha): 4 (Herbicidal rate of 70% or more and less than 90%); herbicidal effect on H: barnyard grass (evaluation grade 0-5) ([11]; 320 g/ha): 5 (Herbicidal rate of 90% or more (almost completely withered)); herbicidal effect on F: southern crabgrass (evaluation grade 0-5) ([13]; 320 g/ha): 3 (Herbicidal rate of 40% or more and less than 70%); herbicidal effect on K: Italian ryegrass (evaluation grade 0-5) ([25]; 320 g/ha): 4 (Herbicidal rate of 70% or more and less than 90%); herbicidal effect on I: wild oat (evaluation grade 0-5) ([26]; 320 g/ha): 0 (Herbicidal rate of 5% or less (almost no effect)); herbicidal effect on M: velvetleaf (evaluation grade 0-5) ([27]; 320 g/ha): 3 (Herbicidal rate of 40% or more and less than 70%); herbicidal effect on J: blackgrass (evaluation grade 0-5) ([29]; 320 g/ha): 4 (Herbicidal rate of 70% or more and less than 90%)
2 | CCCC(=O)Oc1c(C)nn(C)c(=O)c1-c1c(-c2ccccc2OC(F)(F)F)sc2c(Cl)cccc12 [4-077] | 0 (Herbicidal rate of 5% or less (almost no effect)) | 0 (Herbicidal rate of 5% or less (almost no effect)) | 0 (Herbicidal rate of 5% or less (almost no effect)) | 0 (Herbicidal rate of 5% or less (almost no effect)) | 3 (Herbicidal rate of 40% or more and less than 70%) | 5 (Herbicidal rate of 90% or more (almost completely withered)) | 3 (Herbicidal rate of 40% or more and less than 70%) | 0 (Herbicidal rate of 5% or less (almost no effect)) | 4 (Herbicidal rate of 70% or more and less than 90%) | 3 (Herbicidal rate of 40% or more and less than 70%) | 5 (Herbicidal rate of 90% or more (almost completely withered)) | 0 (Herbicidal rate of 5% or less (almost no effect)) | 0 (Herbicidal rate of 5% or less (almost no effect)) | 0 (Herbicidal rate of 5% or less (almost no effect)) | 0 (Herbicidal rate of 5% or less (almost no effect)) | 0 (Herbicidal rate of 5% or less (almost no effect)) | 0 (Herbicidal rate of 5% or less (almost no effect)) | 0 (Herbicidal rate of 5% or less (almost no effect)) | Herbicidal effect by foliage application, G: green foxtail [2, 31]: 3 (Herbicidal rate of 40% or more and less than 70%); Herbicidal effect by foliage application, P: chickweed [4, 31]: 5 (Herbicidal rate of 90% or more (almost completely withered)); Herbicidal effect by foliage application, R: persian speedwell [5, 31]: 5 (Herbicidal rate of 90% or more (almost completely withered)); Herbicidal effect by foliage application, N: redroot pigweed [6, 31]: 5 (Herbicidal rate of 90% or more (almost completely withered)); Herbicidal effect by foliage application, O: lambsquarters [9, 31]: 4 (Herbicidal rate of 70% or more and less than 90%); Herbicidal effect by foliage application, L: windgrass [10, 31]: 0 (Herbicidal rate of 5% or less (almost no effect)); Herbicidal effect by foliage application, H: barnyard grass [11, 31]: 3 (Herbicidal rate of 40% or more and less than 70%); Herbicidal effect by foliage application, F: southern crabgrass [13, 31]: 0 (Herbicidal rate of 5% or less (almost no effect)); Herbicidal effect by foliage application, K: Italian ryegrass [25, 31]: 3 (Herbicidal rate of 40% or more and less than 70%); Herbicidal effect by foliage application, I: wild oat [26, 31]: 0 (Herbicidal rate of 5% or less (almost no effect)); Herbicidal effect by foliage application, M: velvetleaf [27, 31]: 5 (Herbicidal rate of 90% or more (almost completely withered)); Herbicidal effect by foliage application, J: blackgrass [29, 31]: 0 (Herbicidal rate of 5% or less (almost no effect))
